Reference: PMC11249626, “Fluorophore-Labeled Pyrrolones Targeting the Intracellular Allosteric Binding Site of the Chemokine Receptor CCR1” (ACS Pharmacology & Translational Science, 2024)
In brackets after ≈: the same amount, converted by molar mass. Where two headings read alike, the source gives them in different places.

Tests used:
[1] = Kinetic solubility assay (nephelometry); type: physicochemical; conditions: aqueous buffer, kinetic from dmso stock; saline phosphate buffer pH 7.25, 1% DMSO, 25 °C, ± SD; read-out: kinetic solubility Skin
[2] = target: T1, human chemokine receptor CCR2 (Homo sapiens, UniProt P41597); assay: Cellular NanoBiT β-arrestin recruitment assay; type: cell-based; conditions: in the presence of CCL2 (10 nM), HEK293T cells
T1 construct: expressed in transfected cells; host or cells: HEK293T, transient
T1 sequence (P41597 whole entry): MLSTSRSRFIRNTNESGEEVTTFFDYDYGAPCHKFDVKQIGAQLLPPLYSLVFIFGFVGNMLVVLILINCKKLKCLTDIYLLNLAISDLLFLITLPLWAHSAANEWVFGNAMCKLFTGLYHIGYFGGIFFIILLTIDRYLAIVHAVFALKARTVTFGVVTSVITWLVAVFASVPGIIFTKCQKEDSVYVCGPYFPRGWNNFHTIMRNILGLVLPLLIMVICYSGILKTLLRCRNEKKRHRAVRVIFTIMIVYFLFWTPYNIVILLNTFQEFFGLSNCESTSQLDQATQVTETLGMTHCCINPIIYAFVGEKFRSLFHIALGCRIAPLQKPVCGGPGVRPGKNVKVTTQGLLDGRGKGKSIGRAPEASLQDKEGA
Description: (PerkinElmer, Groningen, NL).
Cellular NanoBiT β-arrestin recruitment assays: Chemokine-induced β-arrestin-2 recruitment to chemokine receptors CCR1 and CCR2 was monitored using a nanoluciferase complementation -based assay (NanoBiT, Promega). 17-19 5 x 10^6 HEK293T cells were plated in 10 cm dishes and cultured for 24 h before transfection with vectors encoding for the human chemokine receptor CCR1 or CCR2 C-terminally fused with SmBiT and β-arrestin 2 N-terminally fused with LgBiT. 24 h after transfection cells were harvested, distributed into white 96-well plates (5 × 10^4 cells per well) and incubated for 1 h at 37 °C with compound 23 at concentrations ranging from 10 nM to 10 µM. The endogenous chemokine ligand CCL5 (3 nM, for CCR1) or CCL2 (10 nM, for CCR2) was then added, and luminescence generated upon nanoluciferase complementation in the presence of coelenterazine H was measured with a Mithras LB940 luminometer (Berthold Technologies) for 20 min. […]
Finally, the top 5% of the identified hits were subsequently docked to a homology model of CCR1 (vide infra). After visual examination of the obtained binding modes 24 hit compounds were identified for further investigation .
Molecular docking: For the docking studies in the course of our virtual screening campaign, the CCR1 protein was […]
27, 28 CCR1 structure was optimized using the Quickprep and structure preparation wizard in MOE 24 using CHARMM27 forcefield. The protein was saved in mol2 format and loaded in GOLD.25, 26 The amino acids defining the IABS were listed in a text file to define the docking cavity. 50 GA runs were performed for docking CCR2-RA-[R] (4-[R]) and SN_12 (43), with the generated solutions clustered based on their RMSD with the threshold set to 0.75 Å using the complete linkage method. Docking runs were performed using ChemScore. […]

## O=C(C1=C(O)C(=O)N(CCc2ccc(O)cc2)C1c1ccc(F)cc1)c1ccccc1 (racemic) [compound 23]
[1]
  solubility kinetic at 10 s: 442 ± 27 µM (≈ 185 µg/mL)
[2]; read-out: IC50 (CCR2), β-arrestin recruitment
  IC50: 186 µM
[2]; read-out: pIC50(CCR2), β-arrestin recruitment (converted)
  IC50: 195 µM
